Experimental data as given in patent US12473324B2, “Triazine-based amphiphilic compound and use thereof” (INDUSTRY-UNIVERSITY COOPERATION FOUNDATION HANYANG …, priority 2019, dated 2025).
Each block holds one compound with its values, some of them ahead of it.

Legend:
[1] = Critical micelle concentration (CMC) by fluorescent dye diphenylhexatriene (DPH); format: physicochemical; conditions: DPH fluorescence
Procedure: A method of measuring the CMC is not particularly limited, but a method widely known in the art may be used, and for example, the CMC may be measured by a fluorescent staining method using diphenylhexatriene (DPH).
(§1) Specifically, the critical micelle concentrations (CMCs) were measured using a fluorescent dye, diphenylhexatriene (DPH), and the hydrodynamic radii (Rh) of micelles formed by each preparation (1.0 wt %) were determined by a dynamic light scattering (DLS) experiment. The measured results are shown in Table 1 compared to DDM which is an existing amphiphilic molecule (detergent).

[2] = Hydrodynamic radius (Rh) of micelles by dynamic light scattering (DLS); format: physicochemical; conditions: 1.0 wt % detergent
Procedure: A method of measuring the radius of micelle is not particularly limited, but a method widely known in the art may be used, and for example, the radius of micelle may be measured using a dynamic light scattering (DLS) experiment.
as §1

[3] = Solubility of detergent (Table 1); format: physicochemical
[4] = system: leucine transporter (LeuT); test: LeuT structural stability: [3H]-Leu binding by scintillation proximity assay (SPA); format: biochemical, Aquifex aeolicus; conditions: CMC+0.04 wt % or CMC+0.2 wt %, room temperature, 13-day incubation, [3H]-Leu SPA
Procedure: Experiments were performed to measure the structural stability of the LeuT protein by TSMs, TTGs and TEMs. Each amphiphilic compound was used at a concentration of (a) CMC+0.04 wt % or (b) CMC+0.2 wt %, and the substrate binding properties of LeuT were measured using [^3H]-Leu via scintillation proximity assay (SPA). The measurement was performed at regular intervals over the course of a 13-day and 12-day incubation at room temperature, respectively.
Specifically, a wild-type leucine transporter (LeuT) derived from the thermophilic bacterium Aquifex aeolicus was purified by a previously described method (Nature 1998, 392, 353-358 by G. Deckert et al.). LeuT was expressed in E. coli C41 (DE3) transformed with pET16b encoding the C-terminal 8×His-tagged transporter (expression plasmids were provided from Dr E. Gouaux, Vollum Institute, Portland, Oregon, USA). In summary, after a bacterial membrane was isolated and solubilized in 1 wt % DDM, the protein was bound to Ni^2+-NTA resin (Life Technologies, Denmark), and eluted in 20 mM Tris-HCl (pH 8.0), 1 mM NaCl, 199 mM KCl, 0.05% (w/v) DDM and 300 mM imidazole. Then, the purified LeuT (0.5 mg/ml) was diluted with buffers supplemented with TSMs, TTGs, TEMs or DDM at a final concentration of CMC+0.04% (w/v) or CMC+0.2% (w/v) except for DDM and imidazole in the equivalent buffer described above. Protein samples were incubated at room temperature for 13 days, centrifuged at a specified time, and protein properties were confirmed by measuring [^3H]-Leucine binding ability using SPA. SPA was performed with 5 μL of each protein sample in a buffer containing 450 mM NaCl and each of TSMs and TEMs (or DDM). The SPA reaction was performed in the presence of 20 nM [^3H]-Leucine and 1.25 mg/ml copper chelate (His-Tag) YSi beads (PerkinElmer, Denmark). Overall [^3H]-Leucine coupling to each sample was measured using a MicroBeta liquid scintillation counter (Perkin Elmer).

SMILES: CCCCCCCCCCCSc1nc(NC(CO[C@@H]2O[C@H](CO)[C@@H](O[C@H]3O[C@H](CO)[C@@H](O)[C@H](O)[C@H]3O)[C@H](O)[C@H]2O)CO[C@@H]2O[C@H](CO)[C@@H](O[C@H]3O[C@H](CO)[C@@H](O)[C@H](O)[C@H]3O)[C@H](O)[C@H]2O)nc(SCCCCCCCCCCC)n1 [TSM-T11]
CMC [1]: ~0.001 mM | Rh (nm) [2]: 94.8 ± 45 nm | solubility [3]: ~1%

SMILES: CCCCCCCCCCCCCCNc1nc(NCCCCCCCCCCCCCC)nc(NC(CO[C@@H]2O[C@H](CO)[C@@H](O)[C@H](O)[C@H]2O)(CO[C@@H]2O[C@H](CO)[C@@H](O)[C@H](O)[C@H]2O)CO[C@@H]2O[C@H](CO)[C@@H](O)[C@H](O)[C@H]2O)n1 [TTG-A14]
CMC [1]: ~0.008 mM | Rh (nm) [2]: 3.2 ± 0.05 nm | solubility [3]: ~1%

SMILES: CCCCCCCCCCCOc1nc(OCCCCCCCCCCC)nc(N(CCO[C@@H]2O[C@H](CO)[C@@H](O[C@H]3O[C@H](CO)[C@@H](O)[C@H](O)[C@H]3O)[C@H](O)[C@H]2O)CCO[C@@H]2O[C@H](CO)[C@@H](O[C@H]3O[C@H](CO)[C@@H](O)[C@H](O)[C@H]3O)[C@H](O)[C@H]2O)n1 [TEM-E11]
CMC [1]: ~0.001 mM | Rh (nm) [2]: 25.2 ± 1.2 nm | solubility [3]: ~1%

SMILES: CCCCCCCCCOc1nc(NC(CO[C@@H]2O[C@H](CO)[C@@H](O[C@H]3O[C@H](CO)[C@@H](O)[C@H](O)[C@H]3O)[C@H](O)[C@H]2O)CO[C@@H]2O[C@H](CO)[C@@H](O[C@H]3O[C@H](CO)[C@@H](O)[C@H](O)[C@H]3O)[C@H](O)[C@H]2O)nc(OCCCCCCCCC)n1 [TSM-E9]
CMC [1]: ~0.01 mM | Rh (nm) [2]: 4.0 ± 0.1 nm | solubility [3]: ~10%

SMILES: CCCCCCCCOc1nc(NC(CO[C@@H]2O[C@H](CO)[C@@H](O[C@H]3O[C@H](CO)[C@@H](O)[C@H](O)[C@H]3O)[C@H](O)[C@H]2O)CO[C@@H]2O[C@H](CO)[C@@H](O[C@H]3O[C@H](CO)[C@@H](O)[C@H](O)[C@H]3O)[C@H](O)[C@H]2O)nc(OCCCCCCCC)n1 [TSM-E8]
CMC [1]: ~0.02 mM | Rh (nm) [2]: 3.6 ± 0.1 nm | solubility [3]: ~10% | LeuT substrate binding properties over incubation [4]: best substrate binding activity

SMILES: CCCCCCCCNc1nc(NCCCCCCCC)nc(NC(CO[C@@H]2O[C@H](CO)[C@@H](O)[C@H](O)[C@H]2O)(CO[C@@H]2O[C@H](CO)[C@@H](O)[C@H](O)[C@H]2O)CO[C@@H]2O[C@H](CO)[C@@H](O)[C@H](O)[C@H]2O)n1 [TTG-A8]
CMC [1]: ~0.6 mM | Rh (nm) [2]: 2.1 ± 0.56 nm | solubility [3]: ~10%

SMILES: CCCCCCCCSc1nc(NC(CO[C@@H]2O[C@H](CO)[C@@H](O)[C@H](O)[C@H]2O)(CO[C@@H]2O[C@H](CO)[C@@H](O)[C@H](O)[C@H]2O)CO[C@@H]2O[C@H](CO)[C@@H](O)[C@H](O)[C@H]2O)nc(SCCCCCCCC)n1 [TTG-T8]
CMC [1]: ~0.015 mM | Rh (nm) [2]: 2.9 ± 0.09 nm | solubility [3]: ~10%

SMILES: CCCCCCCCCCNc1nc(NCCCCCCCCCC)nc(NC(CO[C@@H]2O[C@H](CO)[C@@H](O)[C@H](O)[C@H]2O)(CO[C@@H]2O[C@H](CO)[C@@H](O)[C@H](O)[C@H]2O)CO[C@@H]2O[C@H](CO)[C@@H](O)[C@H](O)[C@H]2O)n1 [TTG-A10]
CMC [1]: ~0.3 mM | Rh (nm) [2]: 2.3 ± 0.14 nm | solubility [3]: ~10%

Now from value to compound:

CMC [1]: ~0.001 mM | Rh (nm) [2]: 31.8 ± 0.3 nm | solubility [3]: ~1%
SMILES: CCCCCCCCCCCSc1nc(SCCCCCCCCCCC)nc(N(CCO[C@@H]2O[C@H](CO)[C@@H](O[C@H]3O[C@H](CO)[C@@H](O)[C@H](O)[C@H]3O)[C@H](O)[C@H]2O)CCO[C@@H]2O[C@H](CO)[C@@H](O[C@H]3O[C@H](CO)[C@@H](O)[C@H](O)[C@H]3O)[C@H](O)[C@H]2O)n1 [TEM-T11]

CMC [1]: ~0.02 mM | Rh (nm) [2]: 2.8 ± 0.16 nm | solubility [3]: ~10%
SMILES: CCCCCCCSc1nc(NC(CO[C@@H]2O[C@H](CO)[C@@H](O)[C@H](O)[C@H]2O)(CO[C@@H]2O[C@H](CO)[C@@H](O)[C@H](O)[C@H]2O)CO[C@@H]2O[C@H](CO)[C@@H](O)[C@H](O)[C@H]2O)nc(SCCCCCCC)n1 [TTG-T7]

CMC [1]: ~0.04 mM | Rh (nm) [2]: 2.5 ± 0.07 nm | solubility [3]: ~5%
SMILES: CCCCCCCCCCCCNc1nc(NCCCCCCCCCCCC)nc(NC(CO[C@@H]2O[C@H](CO)[C@@H](O)[C@H](O)[C@H]2O)(CO[C@@H]2O[C@H](CO)[C@@H](O)[C@H](O)[C@H]2O)CO[C@@H]2O[C@H](CO)[C@@H](O)[C@H](O)[C@H]2O)n1 [TTG-A12]

CMC [1]: ~0.04 mM | Rh (nm) [2]: 3.4 ± 0.1 nm | solubility [3]: ~10%
SMILES: CCCCCCCOc1nc(NC(CO[C@@H]2O[C@H](CO)[C@@H](O[C@H]3O[C@H](CO)[C@@H](O)[C@H](O)[C@H]3O)[C@H](O)[C@H]2O)CO[C@@H]2O[C@H](CO)[C@@H](O[C@H]3O[C@H](CO)[C@@H](O)[C@H](O)[C@H]3O)[C@H](O)[C@H]2O)nc(OCCCCCCC)n1 [TSM-E7]

CMC [1]: ~0.2 mM | Rh (nm) [2]: 2.4 ± 0.11 nm | solubility [3]: ~10%
SMILES: CCCCCCCCCCCNc1nc(NCCCCCCCCCCC)nc(NC(CO[C@@H]2O[C@H](CO)[C@@H](O)[C@H](O)[C@H]2O)(CO[C@@H]2O[C@H](CO)[C@@H](O)[C@H](O)[C@H]2O)CO[C@@H]2O[C@H](CO)[C@@H](O)[C@H](O)[C@H]2O)n1 [TTG-A11]

CMC [1]: ~0.5 mM | Rh (nm) [2]: 2.2 ± 0.20 nm | solubility [3]: ~10%
SMILES: CCCCCCCCCNc1nc(NCCCCCCCCC)nc(NC(CO[C@@H]2O[C@H](CO)[C@@H](O)[C@H](O)[C@H]2O)(CO[C@@H]2O[C@H](CO)[C@@H](O)[C@H](O)[C@H]2O)CO[C@@H]2O[C@H](CO)[C@@H](O)[C@H](O)[C@H]2O)n1 [TTG-A9]

CMC [1]: ~0.003 mM | Rh (nm) [2]: 38.2 ± 1.8 nm | solubility [3]: ~5% | LeuT substrate binding properties over incubation [4]: best substrate binding activity
SMILES: CCCCCCCCCCSc1nc(NC(CO[C@@H]2O[C@H](CO)[C@@H](O[C@H]3O[C@H](CO)[C@@H](O)[C@H](O)[C@H]3O)[C@H](O)[C@H]2O)CO[C@@H]2O[C@H](CO)[C@@H](O[C@H]3O[C@H](CO)[C@@H](O)[C@H](O)[C@H]3O)[C@H](O)[C@H]2O)nc(SCCCCCCCCCC)n1 [TSM-T10]

CMC [1]: ~0.0025 mM | Rh (nm) [2]: 4.3 ± 0.0 nm | solubility [3]: ~5% | LeuT substrate binding properties over incubation [4]: best substrate binding activity
SMILES: CCCCCCCCCCSc1nc(SCCCCCCCCCC)nc(N(CCO[C@@H]2O[C@H](CO)[C@@H](O[C@H]3O[C@H](CO)[C@@H](O)[C@H](O)[C@H]3O)[C@H](O)[C@H]2O)CCO[C@@H]2O[C@H](CO)[C@@H](O[C@H]3O[C@H](CO)[C@@H](O)[C@H](O)[C@H]3O)[C@H](O)[C@H]2O)n1 [TEM-T10]
